Article PMC6152192, “Novel Methylselenoesters as Antiproliferative Agents” (Molecules : A Journal of Synthetic Chemistry and Natural …, 2017)

Assays:
[1] = tested on: K-562 (chronic myelogenous leukemia); test: MTT viability assay, K-562; assay type: cell-based; details: K-562, 72 h, MTT; for CC50: read-out: LC50 (the source's name)
How it was run: (§1)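 Cells (10,000/well; RPMI or, for BEAS-2B, DMEM with 10% FBS; 37 °C, 5% CO2) were treated 72 h with six concentrations from 0.1 to 100 μM, diluted from 0.01 M DMSO stock. MTT was added for 4 h, formazan dissolved in DMSO, absorbance read at 550 nm; GI50, TGI and LC50 derived.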

[2] = tested on: HT-29 (colorectal adenocarcinoma); test: MTT viability assay, HT-29; assay type: cell-based; details: HT-29, 72 h, MTT; for CC50: read-out: LC50 (the source's name)
How it was run: as §1

[3] = tested on: MCF7 cells; test: Cell death analysis (TUNEL, Apo-Direct kit, flow cytometry); assay type: cell-based; details: for dead cells: MCF7, 30 μM, TUNEL; for cell death time dependence: MCF7, time-course, 15 μM compound 5 or 30 μM compound 15, TUNEL
Procedure: Induction of cell death is the major aim of antitumor drugs. We analyzed cell death progression using the TUNEL technique (in the Apo-Direct kit), which is based on DNA fragmentation. MCF7 cells were treated with increasing concentrations of compounds 5 and 15 for 24 h or with 30 μM of compound 15 or 15 μM of compound 5 for different times. The negative control was treated with vehicle, and camptothecin (6 μM) was included as a positive control.
3 × 10^6 or 2 × 10^6 MCF7 cells were seeded in 25 cm^2 flasks for treatments up to 24 h or 48 h, respectively. DMSO (vehicle) or the dissolved compounds were added 24 h after seeding and cells were incubated for different times at 37 °C under 5% CO2. Cell cycle and cell death were analyzed simultaneously with the Apo-Direct kit (BD Pharmingen, Madrid, Spain), following the manufacturer’s protocol. Briefly, cells were fixed in 1% paraformaldehyde for 45 min at 0 °C, washed with PBS and incubated for at least 30 min in 70% ethanol on ice. Cells were then stained both with FITC-dUTP (1 h, 37 °C) and propidium iodide (30 min, room temperature) and analyzed by flow cytometry using a Coulter Epics XL cytometer (Beckman Coulter, Brea, CA, USA).
Figure 5 Cell death induction is dose and time-dependent for compound 15 in MCF7. MCF7 cells were treated with vehicle (control) or increasing doses of compound 5 or 15 for 24 h. For the time-course experiment, MCF7 cells were treated with vehicle (control), compound 5 (15 μM) or compound 15 (30 μM) for different times. Camptothecin (6 μM) was included as positive control. Cells were stained with the Apo-Direct kit (TUNEL assay) and analyzed by flow cytometry. (A) Dose-dependent cell death at 24 h; (B) Time-course analysis of cell death.

[4] = tested on: glutathione-glutaredoxin (GSH-Grx) system; test: Glutaredoxin/glutathione assay (NADPH consumption); assay type: biochemical; details: 1 mM GSH, 200 μM NADPH, yeast GR, 1 μM hGrx1 when required, 45 min
Procedure: The assay was performed as previously described, with minor modifications and adapted for a 96-well plate. A mixture of 0.1 M Tris pH 8, 2 mM EDTA pH = 8, 0.1 mg/mL BSA, 1 mM GSH, 200 μM NADPH, and 0.008 OD/mL yeast GR was prepared (all reagents were purchased from Sigma-Aldrich). Reactions were performed with 1 μM hGrx1 (IMCO Corporation, Stockholm, Sweden) when corresponding and different concentrations of the compounds. A 100 μL mixture was added, and the final volume was adjusted to 110 μL per well. Consumption of NADPH was monitored at A340 on a VersaMax microplate reader (Molecular Devices) for 45 min.
Figure 7 Compounds 5 and 15 are substrates for thioredoxin reductase but not for the glutathione-glutaredoxin system. (A) NADPH consumption indicating reduction of compounds 5, 15 or MSA as control by thioredoxin reductase. The reaction mixture contained 100 nM TrxR1, 227 μM NADPH and the corresponding amount of compound in TE buffer (20 mM Tris, 2 mM EDTA pH = 8); (B) NADPH consumption indicating reduction of MSA by glutathione in the presence or absence of glutaredoxin. The reaction mixture contained the corresponding amount of compound, 0.1 M Tris, 2 mM EDTA pH = 8, 0.1 mg/mL BSA, 1 mM GSH, 200 μM NADPH, 0.008 OD/mL yeast GR and 1 μM hGrx1 when required. Only results for MSA are shown, as compounds 5 and 15 were not reduced.

Row | Substance | GI50 [1] | TGI [1] | CC50 [1] | GI50 [2] | TGI [2] | CC50 [2] | dead cells ([3]; 4 h) | dead cells ([3]; 48 h) | cell death time dependence [3] | reduction by GSH in the presence or absence of glutaredoxin (NADPH consumption) [4]
1 | Dimethyl 2,5-furandicarboselenoate [Compound 15] | 42 ± 3.8 µM | 70.6 ± 3.4 µM | 99.2 ± 5.3 µM | 3 ± 0.5 µM | 6.6 ± 0.4 µM | 35.8 ± 5 µM | 20% | 80% | caused cell death in a time-dependent manner | not reduced
2 | Methyl 3-chlorothiophen-2-carboselenoate [Compound 5] | 38.7 ± 2.1 µM | 67.0 ± 1.9 µM | 95.2 ± 2.2 µM | 3.6 ± 0.3 µM | 6.3 ± 0.2 µM | 8.9 ± 0.2 µM | – | – | highest values of cell death for compound 5 were observed after 4 h treatment | not reduced
